Results from US20230065953A1, “NOVEL HETEROARYL-TRIAZOLE COMPOUNDS AS PESTICIDES” (Bayer Aktiengesellschaft, priority 2019, published 2023).

Columns and labels:
Assay type in all cases: in vivo
[1] = tested on: fall armyworm larvae (Spodoptera frugiperda); experiment: Spodoptera frugiperda spray test (maize leaf sections); settings: 168 h
Procedure, shortened: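 Maize leaf sections sprayed with compound in acetone/dimethylformamide, diluted in water with 1000 ppm alkylarylpolyglycol ether emulsifier. Dried sections infested with fall armyworm larvae. Mortality (%) scored after 7 days; 100% = all caterpillars killed.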

[2] = tested on: adult unfed cat fleas (Ctenocephalides felis); experiment: Ctenocephalides felis oral test; settings: 48 h
Protocol: Ctenocephalides felis—Oral Test
(§1) Solvent: dimethyl sulfoxide
To produce a suitable preparation of active compound, 10 mg of active compound are dissolved in 0.5 mL solvent, and the concentrate is diluted with cattle blood to the desired concentration.
Approximately 20 adult unfed cat fleas (Ctenocephalides felis) are placed in flea chambers. The blood chamber, sealed with parafilm on the bottom, are filled with cattle blood supplied with compound solution and placed on the gauze covered top of the flea chamber, so that the fleas are able to suck the blood. The blood chamber is heated to 37° C. whereas the flea chamber is kept at room temperature.
After 2 days mortality in % is determined. 100% means all the fleas have been killed; 0% means none of the fleas have been killed.

[3] = tested on: Rhipicephalus microplus larvae (strain Parkhurst, resistant against synthetic pyrethroids); experiment: Rhipicephalus (Boophilus) microplus in-vitro contact test, larval cattle tick; settings: 5 μg/cm^2 (=500 g/ha), after 48 hours, read-out: efficacy (larvae dead or moribund)
Procedure, shortened: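 After drying, 20-50 larvae were held per tube at 27° C., 85% relative humidity for 48 h, and efficacy was scored as % dead or moribund.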

[4] = tested on: green peach aphid (Myzus persicae); experiment: Myzus persicae oral test; settings: 120 h
Protocol: Myzus persicae—oral test • Solvent: 100 parts by weight acetone
To produce a suitable preparation of active compound, 1 part by weight of active compound is mixed with the stated amount of solvent, and the concentrate is diluted with water to the desired concentration. 50 μL compound solution is filled in microtiter plates and 150 μL IPL41 insect medium (33%+15% sugar) is added to obtain a total volume of 200 μL per well. Afterwards the plates are sealed with parafilm through which a mixed population of the green peach aphid (Myzus persicae) can suck on the compound preparation.
After 5 days mortality in % is determined. 100% means all aphids have been killed and 0% means none of the aphids have been killed.

[5] = tested on: adult brown dog ticks (Rhipicephalus sanguineus); experiment: Rhipicephalus sanguineus in-vitro contact test with adult brown dog ticks; settings: 5 μg/cm^2 (=500 g/ha), after 48 hours, read-out: efficacy (ticks dead or moribund)
Protocol: Rhipicephalus sanguineus—In-Vitro Contact Tests with Adult Brown Dog Ticks
(§2) 9 mg compound is solved in 1 mL acetone and diluted with acetone to the desired concentration. 250 μL of the test solution is filled in 25 mL glass test tubes and homogeneously distributed on the inner walls by rotation and tilting on a shaking device (2 h at 30 rpm). With a compound concentration of 900 ppm, an inner surface of 44.7 cm^2 and a homogeneous distribution, a dose of 5 μg/cm^2 is achieved.
(§3) After the solvent has evaporated, each test tube is filled with 5-10 adult brown dog ticks (Rhipicephalus sanguineus), closed with a perforated lid and incubated in a lying position at room temperature and relative humidity. After 48 hours efficacy is determined. The ticks are patted on the ground of the tubes and are incubated on a heating plate at 45-50° C. for at most 5 minutes. Immotile or uncoordinated moving ticks, which are not able to escape the heat by climbing upwards, are marked as dead or moribund.
An efficacy of 100% means all ticks are dead or moribund; 0% means no ticks are dead or moribund.

[6] = tested on: adult engorged female ticks (Rhipicephalus microplus); experiment: Rhipicephalus (Boophilus) microplus injection test; settings: 168 h, 4 μg/animal, egg deposition after 7 days, read-out: efficacy (infertile eggs)
Protocol: Rhipicephalus (Boophilus) Microplus—Injection Test
as §1
To produce a suitable preparation of active compound, 10 mg of active compound are dissolved in 0.5 mL solvent, and the concentrate is diluted with solvent to the desired concentration.
Five adult engorged female ticks (Rhipicephalus microplus) are injected with 1 μL compound solution into the abdomen. The ticks are transferred into replica plates and incubated in a climate chamber.
After 7 days egg deposition of fertile eggs is monitored. Eggs where fertility is not visible are stored in a climate chamber till hatching after about 42 days. An efficacy of 100% means all eggs are infertile; 0% means all eggs are fertile.

[7] = tested on: larvae of the banded cucumber beetle (Diabrotica balteata); experiment: Diabrotica balteata spray test; settings: 168 h, 100 g/ha (=32 μg/well), wheat seeds, after 7 days, read-out: efficacy (seedling growth)
Procedure, shortened: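 Wheat seeds germinated 1 day on agar were sprayed with compound in acetone/dimethylformamide with alkylarylpolyglycol ether emulsifier, diluted in emulsifier-containing water. Each unit then received 10-20 larvae, and % efficacy was scored after 7 days.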

[8] = tested on: adult cat fleas (Ctenocephalides felis); experiment: Ctenocephalides felis in-vitro contact test, adult cat flea; settings: 5 μg/cm^2 (=500 g/ha), after 48 hours
Protocol: Ctenocephalides felis—In-Vitro Contact Tests Adult Cat Flea
as §2
as §3, with “cat fleas (Ctenocephalides felis),” for “brown dog ticks (Rhipicephalus sanguineus),”, “fleas” for “ticks”, “fleas,” for “ticks,”
An efficacy of 100% means all fleas are dead or moribund; 0% means no fleas are dead or moribund.

[9] = tested on: adult flies Musca domestica strain WHO-N; experiment: Musca domestica test (MUSCDO surface treatment & contact assay); settings: 24 hours after contact, read-out: efficacy (mortality)
Protocol: Musca domestica Test (MUSCDO Surface Treatment & Contact Assay) • Solvent: Aceton+2000 ppm rapeseed oil methyl ester (RME)
(§4) In order to produce a sufficient, active ingredient containing solution it is necessary to solve the test compound in the solvent-mix (acetone at 2 mg/ml/RME 2000 ppm). This solution is pipetted onto a glazed tile and after evaporation of the acetone, adult flies of the species Musca domestica strain WHO-N are placed onto the dried surface. The exposure time is 30 minutes.
(§5) Mortality in percent (%) is determined 24 hours after contact of the insects to the treated surface. 100% mortality means that all tested insects are dead, whereas 0% means that no insect died.

[10] = tested on: adult mosquitoes Aedes aegypti strain MONHEIM; experiment: Aedes aegypti test (AEDSAE surface treatment & contact assay); settings: surface concentration 20 mg/m^2, 30 min exposure, 24 hours after contact, read-out: efficacy (mortality)
Protocol: Aedes aegypti test (AEDSAE surface treatment & contact assay) • Solvent: Aceton+2000 ppm rapeseed oil methyl ester (RME)
as §4, with “mosquitoes” for “flies”, “Aedes aegypti” for “Musca domestica”, “MONHEIM” for “WHO-N”
as §5

[11] = tested on: green peach aphid (Myzus persicae); experiment: Myzus persicae spray test; settings: foliar, 120 h, Chinese cabbage leaf disks, after 5 days
Procedure, shortened: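 Chinese cabbage leaf discs infested with all instars of the aphid were sprayed with compound prepared in acetone/DMF and diluted in water containing 1000 ppm emulsifier. Mortality (%) was scored after 5 days, 100% meaning all aphids killed and 0% none.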

[12] = tested on: larvae of the southern green stink bug (Nezara viridula); experiment: Nezara viridula spray test; settings: in Hordeum vulgare, 96 h
Procedure, shortened: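 Barley plants sprayed with compound in acetone/dimethylformamide, diluted in water with 1000 ppm alkylarylpolyglycol ether emulsifier, then infested with Nezara viridula larvae. Percent mortality read after 4 days (100% = all killed, 0% = none).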

Compound | mortality at 100 g/ha [1] [%] | mortality at 100 ppm [2] [%] | pest or weed control at 5 µg/cm2 [3] [%] | mortality at 4 ppm [4] [%] | pest or weed control at 5 µg/cm2, 500 g/ha [5] [%] | pest or weed control at 0.004 mg [6] [%] | pest or weed control at 32 µg/disc, 100 g/ha [7] [%] | efficacy (fleas dead or moribund) [8] [%] | mortality at 4 mg/m2 ([9]; surface concentration 4 mg/m^2, 30 min exposure) [%] | mortality at 20 mg/m2 ([9]; surface concentration 20 mg/m^2, 30 min exposure) [%] | mortality at 20 mg/m2 [10] [%] | mortality at 100 g/ha [11] [%] | mortality at 500 g/ha [12] [%]
COCCN(C)C(=O)c1cnc(-n2nc(C)nc2[C@H](C)NC(=O)c2cc(C(F)(F)F)cc(C(F)(F)F)c2)s1 [I-3] | 100 | 80 | 100 | 90 | 100 | 100 | – | – | – | – | – | – | –
Cc1nc([C@H](C)NC(=O)c2cc(C(F)(F)F)cc(C(F)(F)F)c2)n(-c2ncc(C(=O)N(C)C3CC3)s2)n1 [I-7] | 100 | 100 | 100 | 100 | 100 | 100 | 100 | – | – | – | – | – | –
Cc1nc([C@H](C)NC(=O)c2cc(C(F)(F)F)cc(C(F)(F)F)c2)n(-c2ncc(C(=O)N(C)CC(C)C)s2)n1 [I-8] | 100 | 100 | 100 | 100 | 100 | 100 | 100 | – | – | – | – | – | –
Cc1nc([C@H](C)NC(=O)c2cc(C(F)(F)F)cc(C(F)(F)F)c2)n(-c2ncc(C(=O)N(C)CC(F)(F)F)s2)n1 [I-11] | 100 | 100 | 100 | 100 | 100 | 100 | 100 | – | – | – | – | – | –
Cc1nc([C@H](C)NC(=O)c2cc(Cl)cc(Br)c2)n(-c2ncc(C#N)s2)n1 [I-12] | 100 | 100 | 100 | – | 100 | 100 | 100 | – | – | – | – | – | –
Cc1nc([C@H](C)NC(=O)c2cc(Br)cc(Br)c2)n(-c2ncc(C#N)s2)n1 [I-13] | 83 | 100 | 100 | – | 100 | 100 | 100 | – | – | – | – | – | –
Cc1nc([C@H](C)NC(=O)c2cc(Cl)cc(C(F)(F)C(F)(F)F)c2)n(-c2ncc(C#N)s2)n1 [I-19] | 100 | 100 | 100 | – | 80 | 100 | 100 | – | – | – | – | – | –
Cc1nc([C@H](C)NC(=O)c2cc(Cl)nc(C(F)(F)F)c2)n(-c2ncc(C#N)s2)n1 [I-20, 2-chloro-N-{(1S)-1-[1-(5-cyano-1,3-thiazol-2-yl)-3-methyl-1H-1,2,4-triazol-5-yl]ethyl}-6-(trifluoromethyl)isonicotinamide] | – | 100 | 100 | – | 100 | 100 | 100 | – | – | – | – | – | –
CC(NC(=O)c1cc(OC(F)(F)F)cc(C2CC2)c1)c1ncnn1-c1ncc(C#N)s1 (centres unmarked) [I-30] | 100 | 100 | 100 | 100 | 100 | 100 | 100 | – | – | – | – | – | –
C[C@H](NC(=O)c1cc(I)cc(OC(F)F)c1)c1ncnn1-c1ncc(C#N)s1 [I-38] | – | – | 100 | – | 80 | – | 100 | 90 | – | – | – | – | –
C[C@H](NC(=O)c1cc(Br)cc(OC(F)F)c1)c1ncnn1-c1ncc(C#N)s1 [I-39] | 100 | 100 | 90 | 100 | – | 100 | 100 | 80 | 90 to 100 | 80 to 100 | 80 to 100 | – | –
CNC(=O)c1cnc(-n2nc(C)nc2[C@H](C)NC(=O)c2cc(Cl)cc(C(F)(F)F)c2)s1 [I-69] | 100 | – | 80 | 100 | 80 | 100 | 100 | 90 | – | – | – | 90 | –
Cc1nc([C@H](C)NC(=O)c2cc(Br)cc(Br)c2)n(-c2ncc(C(=O)N(C)CC#N)s2)n1 [I-72] | 100 | – | 100 | 100 | 100 | – | 100 | 80 | – | – | – | – | –
Cc1nc([C@H](C)NC(=O)c2cc(Br)cc(OC(F)(F)F)c2)n(-c2ncc(C(=O)N(C)CC#N)s2)n1 [I-125] | 100 | – | 100 | – | 80 | – | 100 | 100 | – | – | – | 90 | 100
